The target of one test is α-Chymotrypsin (Bos taurus, UniProt P00766). The experiment in a line: α-chymotrypsin inhibition (kon and Ki*). It counts as biochemical. As to conditions: for Ki: Ki* = koff/kon. The method, then: Measurement of the inhibition constant, Ki, of a HLE-inhibitor complex has been described for "truly reversible inhibition constants" usually concerning competitive inhibitors. [Cha, Biochem. Pharmacol., 24, 2177-2185 (1975)]. […] Thus, instead of measuring a Ki, a Ki * is calculated which is defined as the ratio of the koff /kon, the rate of reactivation of the enzyme to the rate of inactivation of the enzyme. The values of koff and kon are measured and Ki * is then calculated. The rate of inactivation, kon, of enzymatic activity was determined for the compounds tested by measuring the enzyme activity of an aliquot of the respective enzyme as a function of time after addition of the test compound. […] The rate of inactivation is then equal to [formula] where [I] is the concentration of the inhibiting compound. The reactivation constant, koff, is similarly determined and the inhibition constant, Ki *, is then calculated as Ki *=koff /kon The values obtained for kon and Ki * for specific substituted saccharin derivatives are shown in TABLE F, the compounds being identified by the Example numbers above where their preparations are described.

The target in a further test is T1, human leukocyte elastase (Homo sapiens, UniProt P08246).
T1 sequence (P08246 30-267): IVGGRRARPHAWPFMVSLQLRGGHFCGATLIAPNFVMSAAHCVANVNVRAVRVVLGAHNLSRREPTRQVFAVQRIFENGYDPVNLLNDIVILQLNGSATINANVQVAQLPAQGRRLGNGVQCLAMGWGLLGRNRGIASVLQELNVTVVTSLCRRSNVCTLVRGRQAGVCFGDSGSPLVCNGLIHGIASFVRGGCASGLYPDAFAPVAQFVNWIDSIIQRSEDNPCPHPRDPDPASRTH
Briefly: elastase inhibition using human leukocyte elastase (kon and Ki*). As to conditions: for Ki: Ki* = koff/kon; for kon: read-out: Elastase 10^-3 × kon. It counts as biochemical.

The mark [1] stands for this setting: read-out: α-Chymotrypsin 10^-3 × kon.
The mark [2] stands for this setting: rate of inactivation of enzyme, value is 10^-3 × kon.

Read-outs that look alike come from different tables or passages of the source.

With `CC(=O)OCN1C(=O)c2c(C)cccc2S1(=O)=O` [Example 1, 2-acetoxymethyl-4-methylsaccharin], the Ki (as a rule, the equilibrium dissociation constant of an inhibitor or competing ligand from its target) worked out at 917 nM on α-Chymotrypsin and 102 nM at human leukocyte elastase (read-out: Elastase Ki *). The kon (commonly the second-order rate constant of association) at α-Chymotrypsin (setting [1]) was determined as 1200 M⁻¹ s⁻¹; at human leukocyte elastase (setting [2]), 630 M⁻¹ s⁻¹.
Taken in the same sequence, the figures for `CC(=O)OCN1C(=O)c2c(Cl)cccc2S1(=O)=O` [Example 2, 2-acetoxymethyl-4-chlorosaccharin] were 51 nM, 45 nM, 2900 M⁻¹ s⁻¹ and 4900 M⁻¹ s⁻¹.
Taken in the same sequence, the figures for `O=C1c2c(Cl)cccc2S(=O)(=O)N1CCl` [Example 3, 2-chloromethyl-4-chlorosaccharin] were 26 nM, 0.5 nM, 5800 M⁻¹ s⁻¹ and 450000 M⁻¹ s⁻¹.
In the case of `O=C1c2c(Cl)cccc2S(=O)(=O)N1Cn1nnn(-c2ccccc2)c1=S` [Example 5, 4-chloro-2-(4-phenyl-5-thioxotetrazolin-1-ylmethyl)saccharin], the Ki at α-Chymotrypsin was determined as 25 nM; on human leukocyte elastase (read-out: Elastase Ki *), 6 nM. Further, the kon at α-Chymotrypsin (setting [1]) amounted to 6000 M⁻¹ s⁻¹; on human leukocyte elastase (setting [2]), 44000 M⁻¹ s⁻¹.
`CC(=O)Nc1cccc(-n2nnnc2SCN2C(=O)c3ccccc3S2(=O)=O)c1` [Example 6, 2-[1-(3-acetamidophenyl)-1H-tetrazol-5-ylthiomethyl]saccharin]: the values for the Ki on α-Chymotrypsin and at human leukocyte elastase (read-out: Elastase Ki *) were 300 nM and 15 nM, respectively. Besides, the kon stood at 3700 M⁻¹ s⁻¹ on α-Chymotrypsin (setting [1]) and 5500 M⁻¹ s⁻¹ on human leukocyte elastase (setting [2]).
On α-Chymotrypsin, `Cn1nnnc1SCN1C(=O)c2ccccc2S1(=O)=O` [Example 8, 2-(1-methyl-1H-tetrazol-5-ylthiomethyl)saccharin] showed a Ki of 523 nM. Further, the kon at α-Chymotrypsin (setting [2]) came out at 2100 M⁻¹ s⁻¹; on human leukocyte elastase (setting [2]), 1000 M⁻¹ s⁻¹.
As for `O=C1c2ccccc2S(=O)(=O)N1C[S+]([O-])c1nnnn1-c1ccccc1` (centres unmarked) [Example 10, 2-(1-phenyl-1H-tetrazol-5-ylsulfinylmethyl)saccharin], the figures for the Ki on α-Chymotrypsin and at human leukocyte elastase (read-out: Elastase Ki *) were 157 nM and 11 nM, respectively. Besides, the kon on α-Chymotrypsin (setting [1]) and at human leukocyte elastase (setting [2]) was 7000 M⁻¹ s⁻¹ throughout.
As for `O=C1c2ccccc2S(=O)(=O)N1CS(=O)(=O)c1ccccc1` [Example 12, 2-(phenylsulfonylmethyl)saccharin], the Ki on α-Chymotrypsin turned out to be 1000 nM; on human leukocyte elastase (read-out: Elastase Ki *) it was 82 nM. The kon turned out to be 1100 M⁻¹ s⁻¹ at α-Chymotrypsin (setting [1]) and 970 M⁻¹ s⁻¹ at human leukocyte elastase (setting [2]).
For the compound `O=C1c2ccccc2S(=O)(=O)N1CSc1nnnn1CCN1CCOCC1` [Example 30BG], the Ki at human leukocyte elastase (read-out: Elastase Ki *) came to 50 nM. Also, the kon at human leukocyte elastase (setting [2]) worked out at 1700 M⁻¹ s⁻¹.
For `CC(C)c1cccc2c1C(=O)N(CSc1nnnn1CCN1CCOCC1)S2(=O)=O` [Example 30BI] the same measures were 0.5 nM and 39000 M⁻¹ s⁻¹.
For `Nc1cccc(-n2nnnc2SCN2C(=O)c3ccccc3S2(=O)=O)c1` [Example 30C] the same measures were 17 nM and 2500 M⁻¹ s⁻¹.
For `O=C(O)c1ccc(-n2nnnc2SCN2C(=O)c3ccccc3S2(=O)=O)cc1` [Example 30D] the same measures were 85 nM and 800 M⁻¹ s⁻¹.
Take `COC(=O)c1cc(C(=O)OC)cc(-n2nnnc2SCN2C(=O)c3ccccc3S2(=O)=O)c1` [Example 30E]: the Ki at human leukocyte elastase (read-out: Elastase Ki *) was 12.7 nM. Moreover, the kon at human leukocyte elastase (setting [2]) was 7300 M⁻¹ s⁻¹.
`O=C1C=Cc2ccc(OCN3C(=O)c4ccccc4S3(=O)=O)c3cccc1c23` [Example 30G]: on human leukocyte elastase (read-out: Elastase Ki *), the Ki is 7.7 nM. Besides, at human leukocyte elastase (setting [2]), the kon was 9300 M⁻¹ s⁻¹.
Taken in the same sequence, the figures for `O=C1c2ccccc2S(=O)(=O)N1CSc1nncn1-c1ccccc1` [Example 30I] were 650 nM and 450 M⁻¹ s⁻¹.
As to `CCc1cccc2c1C(=O)N(CSc1nnnn1CCN1CCOCC1)S2(=O)=O` [Example 30J], the Ki at human leukocyte elastase (read-out: Elastase Ki *) stood at 10 nM. Moreover, at human leukocyte elastase (setting [2]), the kon was 14000 M⁻¹ s⁻¹.
For `CCOc1ccc(OCCOCCOC)c2c1C(=O)N(CSc1nnnn1-c1ccccc1)S2(=O)=O` [Example 30L] the same measures were 7.6 nM and 6500 M⁻¹ s⁻¹.
Taken in the same sequence, the figures for `COCCOCCOc1ccc(OC)c2c1S(=O)(=O)N(CSc1nnnn1-c1ccccc1)C2=O` [Example 30M] were 10 nM and 1000 M⁻¹ s⁻¹.
In the case of `O=C1c2ccccc2S(=O)(=O)N1CSc1nnc2ccccn12` [Example 30N], the Ki on human leukocyte elastase (read-out: Elastase Ki *) turned out to be 220 nM. The kon at human leukocyte elastase (setting [2]) came out at 250 M⁻¹ s⁻¹.
Regarding `O=C1c2ccccc2S(=O)(=O)N1CSc1nnnn1-c1cccnc1` [Example 30Q], the Ki on human leukocyte elastase (read-out: Elastase Ki *) was 70.4 nM. Besides, at human leukocyte elastase (setting [2]), the kon was 1380 M⁻¹ s⁻¹.
Taken in the same sequence, the figures for `O=C1c2ccccc2S(=O)(=O)N1Cn1nnn(-c2cccnc2)c1=S` [Example 30R] were 36 nM and 2300 M⁻¹ s⁻¹.
In the case of `Cn1nnc(=S)n1CN1C(=O)c2ccccc2S1(=O)=O` [Example 30W], the Ki on human leukocyte elastase (read-out: Elastase Ki *) turned out to be 80 nM. The “Elastase 10^-3 × kon” value on human leukocyte elastase (setting [2]) is reported as 1.5 M^-1 sec^-1.
As to `Cn1nnc(SCN2C(=O)c3ccccc3S2(=O)=O)n1` [Example 30X], the Ki on human leukocyte elastase (read-out: Elastase Ki *) worked out at 143 nM. Besides, on human leukocyte elastase (setting [2]), the kon amounted to 550 M⁻¹ s⁻¹.
In the case of `CC(C)c1cccc2c1C(=O)N(Cn1nnn(-c3cccnc3)c1=S)S2(=O)=O` [Example 30Z], the Ki at human leukocyte elastase (read-out: Elastase Ki *) turned out to be 0.5 nM. On human leukocyte elastase (setting [2]), the association rate constant (kon) was found to be 70000 M⁻¹ s⁻¹.
Taken in the same sequence, the figures for `O=C1c2ccc([N+](=O)[O-])cc2S(=O)(=O)N1CSc1nnnn1-c1ccccc1` [Example 31C] were 300 nM and 3400 M⁻¹ s⁻¹.
For `O=C1c2ccccc2S(=O)(=O)N1CS(=O)(=O)c1c(Cl)cccc1Cl` [Example 32A, 2-(2,6-dichlorophenylsulfonylmethyl)saccharin] the same measures were 145 nM and 600 M⁻¹ s⁻¹.
As for `O=C1c2ccccc2S(=O)(=O)N1CSc1nnc(SCCN2CCOCC2)s1` [Example 33, 2-(5-[2-(4-morpholinyl)ethylthio]-1,3,4-thiadiazol-2-ylthiomethyl)saccharin], the Ki on human leukocyte elastase (read-out: Elastase Ki *) came to 12 nM. Moreover, the kon on human leukocyte elastase came to 3600 M⁻¹ s⁻¹.
Consider `CN(C)CCSc1nnc(SCN2C(=O)c3ccccc3S2(=O)=O)s1` [Example 33B, 2-(5-[2-(N,N-dimethylamino)-ethylthio]-1,3,4-thiadiazol-2-ylthiomethyl)saccharin], for which the inhibition constant (Ki) at human leukocyte elastase (read-out: Elastase Ki *) came to 18 nM. The kon on human leukocyte elastase (setting [2]) came to 4000 M⁻¹ s⁻¹.
Taken in the same sequence, the figures for `O=C1c2ccccc2S(=O)(=O)N1CSc1nnc(SCCN2CCCCC2)s1` [Example 33C, 2-(5-[2-(1-piperidinyl)-ethylthio]-1,3,4-thiadiazol-2-ylthiomethyl)saccharin] were 350 nM and 200 M⁻¹ s⁻¹.
`O=C(O)Cn1nnnc1SCN1C(=O)c2ccccc2S1(=O)=O` [Example 34, 2-[1-(2-carboxymethyl)-1H-tetrazol-5-ylthiomethyl]saccharin]: on human leukocyte elastase (read-out: Elastase Ki *), the Ki was found to be 256 nM. Moreover, at human leukocyte elastase (setting [2]), the kon worked out at 400 M⁻¹ s⁻¹.
As for `O=C(O)CCC(=O)Nc1cccc(-n2nnnc2SCN2C(=O)c3ccccc3S2(=O)=O)c1` [Example 35, 2-[1-(3-succinoylaminophenyl)-1H-tetrazol-5-ylthiomethyl]saccharin], the Ki on human leukocyte elastase (read-out: Elastase Ki *) is 22 nM. Besides, the kon on human leukocyte elastase (setting [2]) turned out to be 3600 M⁻¹ s⁻¹.
For `O=C1c2ccccc2S(=O)(=O)N1/C=C/CSc1nnnn1-c1ccccc1` [Example 38, trans-2-[3-(1-phenyl-1H-tetrazol-5-ylthio)-1-propenyl]saccharin] the same measures were 2 nM and 43000 M⁻¹ s⁻¹.
Take `CC(C)c1cccc2c1C(=O)N(CN1C(=O)CNS1(=O)=O)S2(=O)=O` [Example 42D]: the Ki on human leukocyte elastase (human leukocyte elastase, read-out: Ki * values, elastase inhibition (Examples 41-57)) came to 1000 nM.

Values taken from patent publication US5874432A, “Saccharin derivatives useful as proteolytic enzyme inhibitors and compositions and method of use thereof” (priority 1997, dated 1999).
